From patent publication US20240148821A1, “PHARMACEUTICAL USE OF CYCLIC PEPTIDE COMPOUND” (CHUGAI SEIYAKU KABUSHIKI KAISHA, priority 2021, published 2024)
Numbered stars: 1 amine (or outer) side, 2 acyl side, 3 side chain; on linkers, the order of the positions; unused ones are H or OH. Bridge positions count the residues as written; N and C are the ends. Square brackets hold non-standard residues; d marks the D form. Peptide text beside a SMILES is read from it. * marks the point of attachment. hPhe(3,5-F2-4-CF3) = N[C@@H](CCc1cc(F)c(C(F)(F)F)c(F)c1)C(=O)O; hPhe(3-Cl-4-CF3) = N[C@@H](CCc1ccc(C(F)(F)F)c(Cl)c1)C(=O)O; hPhe(3-F,4-CF3) = N[C@@H](CCc1ccc(C(F)(F)F)c(F)c1)C(=O)O; NMePhe(4-CF3) = CN[C@@H](Cc1ccc(C(F)(F)F)cc1)C(=O)O; Thiomorpholino(1,1-dioxo) = O=S1(=O)CCN(*)CC1; 3Oxa8azabicyclo(3.2.1)octane = C1CC2COCC1N2*; NEtPhe(4-Me) = CCN[C@@H](Cc1ccc(C)cc1)C(=O)O; NMePhe(4-Cl) = CN[C@@H](Cc1ccc(Cl)cc1)C(=O)O; NMePhe(2-CN) = CN[C@@H](Cc1ccccc1C#N)C(=O)O; NMePhe(4-F) = CN[C@@H](Cc1ccc(F)cc1)C(=O)O; NMePhe(2-Me) = CN[C@@H](Cc1ccccc1C)C(=O)O; NMedβ3hAla = C[C@H](CC(=O)[*:2])N(C)[*:1]; NMeGly(cPent) = CN[C@H](C(=O)O)C1CCCC1; Phe(3-I) = N[C@@H](Cc1cccc(I)c1)C(=O)O; NMeCha = CN[C@@H](CC1CCCCC1)C(=O)O; NMeI = CC[C@H](C)[C@H](NC)C(=O)O; NMeD = CN[C@@H](CC(=O)O)C(=O)O; NMeL = CN[C@@H](CC(C)C)C(=O)O; Cba = N[C@@H](CC1CCC1)C(=O)O; hLeu = CC(C)CC[C@H](N)C(=O)O; NMeV = CN[C@H](C(=O)O)C(C)C; d(β3hA) = C[C@@H](N)CC(=O)O; Morpholide = C1CN(*)CCO1; NMeA = CN[C@@H](C)C(=O)O; NMeAib = CNC(C)(C)C(=O)O; Nle = CCCC[C@H](N)C(=O)O; Piperidide = C1CCN(*)CC1; Pyrrolidide = C1CCN(*)C1; dNMeA = CN[C@H](C)C(=O)O; Ac5c = NC1(C(=O)O)CCCC1; Aze = O=C(O)[C@@H]1CCN1; Ac4c = NC1(C(=O)O)CCC1; Sar = CNCC(=O)O

test system: Human pancreatic cancer cell line AsPC-1 (G12D mutation Kras); experiment: AsPC-1 cell growth inhibition (AsPC-1 CGI); type: cell-based; settings: read-out: AsPC-1 cell growth inhibition, 50% growth inhibitory concentration (IC50 value); 96 hours, CellTiter-Glo, values classified in ranges
Method: Test compounds were serially dilated with dimethyl sulfoxide, and 200 nL was then dispensed to a U-bottom 96-well plate using Labcyte Echo. […] The cell suspension was dispensed to a. plate containing a test compound at 100 μL per well and incubated at 37° C. in a 5% carbon dioxide gas incubator. 96 hours later, 80 μL of CellTiter-Glo (Promega) was added to each well and fluorescence was measured.

Row | SMILES | IC50 [nM]
1 | CC[C@H](C)[C@@H]1NC(=O)[C@H](C)N(C)C(=O)C[C@@H](C)NC(=O)[C@H](C2CCCC2)N(C)C(=O)C2(CCCC2)NC(=O)[C@@H]2CCCN2C(=O)[C@H](CCc2ccc(C(F)(F)F)c(Cl)c2)NC(=O)CN(C)C(=O)[C@H](Cc2ccc(Cl)cc2)N(C)C(=O)[C@@H]2CCCN2C(=O)CN(C)C1=O [Compound 549] (cyclo([Ac5c][NMeGly(cPent)][d(β3hA)][NMeA]I[Sar]P[NMePhe(4-Cl)][Sar][hPhe(3-Cl-4-CF3)]P)) | > 500
2 | CC[C@H](C)[C@@H]1NC(=O)[C@H](CC(C)C)N(C)C(=O)C[C@@H](C)NC(=O)[C@H](CC(C)C)N(C)C(=O)C2(CCC2)NC(=O)[C@@H]2CCCN2C(=O)[C@H](CCc2ccc(C(F)(F)F)c(F)c2)NC(=O)CN(C)C(=O)[C@H](CC2CCCCC2)N(C)C(=O)CN(C)C(=O)CN(C)C1=O [Compound 133] (cyclo([Ac4c][NMeL][d(β3hA)][NMeL]I[Sar][Sar][NMeCha][Sar][hPhe(3-F,4-CF3)]P)) | > 500
3 | CC(C)C[C@H]1C(=O)N[C@@H](CC2CCC2)C(=O)N(C)CC(=O)N(C)CC(=O)N(C)[C@@H](CC2CCCCC2)C(=O)N(C)CC(=O)N[C@@H](CCc2ccc(C(F)(F)F)c(Cl)c2)C(=O)N2CCC[C@H]2C(=O)NC2(CCCC2)C(=O)N(C)[C@@H](C(C)C)C(=O)N(C)[C@H](C(=O)N2CCCCC2)CC(=O)N1C [Compound 451] ([NMeL][Cba][Sar][Sar][NMeCha][Sar][hPhe(3-Cl-4-CF3)]P[Ac5c][NMeV][NMeD]-Piperidide; lactam N-11) | > 500
4 | CC[C@H](C)[C@@H]1NC(=O)[C@H](CC(C)C)N(C)C(=O)C[C@@H](C)NC(=O)[C@H](C(C)C)N(C)C(=O)C2(CCCC2)NC(=O)[C@@H]2CCCN2C(=O)[C@H](CCc2ccc(C(F)(F)F)c(Cl)c2)NC(=O)CN(C)C(=O)[C@H](Cc2ccccc2C)N(C)C(=O)CN(C)C(=O)CN(C)C1=O [Compound 1614] (cyclo([Ac5c][NMeV][d(β3hA)][NMeL]I[Sar][Sar][NMePhe(2-Me)][Sar][hPhe(3-Cl-4-CF3)]P)) | > 500
5 | CC[C@H](C)[C@@H]1NC(=O)[C@H](CC(C)C)N(C)C(=O)C[C@@H](C(=O)N2CCS(=O)(=O)CC2)NC(=O)[C@H]([C@@H](C)CC)N(C)C(=O)C2(CCCC2)NC(=O)[C@@H]2CCCN2C(=O)[C@H](CCc2ccc(C(F)(F)F)c(Cl)c2)NC(=O)CN(C)C(=O)[C@H](CC2CCCCC2)N(C)C(=O)CN(C)C(=O)CN(C)C1=O [Compound 1279] ([NMeL]I[Sar][Sar][NMeCha][Sar][hPhe(3-Cl-4-CF3)]P[Ac5c][NMeI]D-{Thiomorpholino(1,1-dioxo)}; lactam N-11) | > 500
6 | CC(C)C[C@H]1C(=O)N[C@@H](C(C)C)C(=O)N(C)CC(=O)N(C)CC(=O)N(C)[C@@H](CC2CCCCC2)C(=O)N(C)CC(=O)N[C@@H](CCc2ccc(C(F)(F)F)c(F)c2)C(=O)N2CCC[C@H]2C(=O)NC2(CCCC2)C(=O)N(C)[C@@H](CC(C)C)C(=O)N[C@H](C)CC(=O)N1C [Compound 1493] (cyclo([Ac5c][NMeL][d(β3hA)][NMeL]V[Sar][Sar][NMeCha][Sar][hPhe(3-F,4-CF3)]P)) | > 500
7 | CC[C@H](C)[C@@H]1NC(=O)[C@H](CC(C)C)N(C)C(=O)C[C@@H](C(=O)N2CCCC2)N(C)C(=O)[C@H]([C@@H](C)CC)N(C)C(=O)C2(CCCC2)NC(=O)[C@@H]2CCCN2C(=O)[C@H](CCc2ccc(C(F)(F)F)c(Cl)c2)NC(=O)CN(C)C(=O)[C@H](CC2CCCCC2)N(C)C(=O)CN(C)C(=O)CN(C)C1=O [Compound 1662] ([NMeL]I[Sar][Sar][NMeCha][Sar][hPhe(3-Cl-4-CF3)]P[Ac5c][NMeI][NMeD]-Pyrrolidide; lactam N-11) | ≤ 20
8 | CC[C@H](C)[C@@H]1NC(=O)[C@H](C)N(C)C(=O)C[C@@H](C(=O)N2CCCCC2)N(C)C(=O)[C@H](C(C)C)N(C)C(=O)C2(CCCC2)NC(=O)[C@@H]2CCCN2C(=O)[C@H](CCc2ccc(C(F)(F)F)c(Cl)c2)NC(=O)[C@@H](C)N(C)C(=O)[C@H](Cc2ccc(F)cc2)N(C)C(=O)[C@@H]2CCCN2C(=O)CN(C)C1=O [Compound 1853] ([NMeA]I[Sar]P[NMePhe(4-F)][dNMeA][hPhe(3-Cl-4-CF3)]P[Ac5c][NMeV][NMeD]-Piperidide; lactam N-11) | > 500
9 | CC[C@H](C)[C@@H]1NC(=O)[C@H](C)N(C)C(=O)C[C@@H](C)NC(=O)[C@H](C2CCCC2)N(C)C(=O)C2(CCCC2)NC(=O)[C@@H]2CCCN2C(=O)[C@H](CCc2ccc(C(F)(F)F)c(Cl)c2)NC(=O)[C@@H](C)N(C)C(=O)[C@H](CC2CCCCC2)N(C)C(=O)CN(C)C(=O)CN(C)C1=O [Compound 1535] (cyclo([Ac5c][NMeGly(cPent)][d(β3hA)][NMeA]I[Sar][Sar][NMeCha][dNMeA][hPhe(3-Cl-4-CF3)]P)) | > 500
10 | CC[C@H](C)[C@@H]1NC(=O)[C@H](CC(C)C)N(C)C(=O)C[C@@H](C(=O)N2C3CCC2COC3)N(C)C(=O)[C@H](C2CCCC2)N(C)C(=O)C2(CCCC2)NC(=O)[C@@H]2CCCN2C(=O)[C@H](CCc2ccc(C(F)(F)F)c(F)c2)NC(=O)CN(C)C(=O)[C@H](CC2CCCCC2)N(C)C(=O)[C@@H]2CCN2C(=O)[C@H](C)N(C)C1=O [Compound 734] ([NMeL]I[NMeA][Aze][NMeCha][Sar][hPhe(3-F,4-CF3)]P[Ac5c][NMeGly(cPent)][NMeD]-{3Oxa8azabicyclo(3.2.1)octane}; lactam N-11) | ≤ 20
11 | CCCC[C@@H]1NC(=O)[C@H](Cc2cccc(I)c2)NC(=O)CN(C)C(=O)[C@H](Cc2ccc(C(F)(F)F)cc2)N(C)C(=O)CN(C)C(=O)CN(C)C(=O)[C@H]([C@@H](C)CC)NC(=O)[C@H](CC(C)C)N(C)C(=O)C[C@@H](C(=O)N2CCCCC2)N(C)C(=O)[C@H](CCC(C)C)NC(=O)C(C)(C)N(C)C1=O [Compound 1433] ([NMeL]I[Sar][Sar][NMePhe(4-CF3)][Sar][Phe(3-I)][Nle][NMeAib][hLeu][NMeD]-Piperidide; lactam N-11) | > 500
12 | CC[C@H](C)[C@@H]1NC(=O)[C@H](CC(C)C)N(C)C(=O)C[C@@H](C(=O)N2CCCCC2)NC(=O)[C@H](CC(C)C)N(C)C(=O)C2(CCCC2)NC(=O)[C@@H]2CCCN2C(=O)[C@H](CCc2ccc(C(F)(F)F)c(F)c2)NC(=O)CN(C)C(=O)[C@H](CC2CCCCC2)N(C)C(=O)CN(C)C(=O)CN(C)C1=O [Compound 298] ([NMeL]I[Sar][Sar][NMeCha][Sar][hPhe(3-F,4-CF3)]P[Ac5c][NMeL]D-Piperidide; lactam N-11) | > 500
13 | CC[C@H](C)[C@@H]1NC(=O)[C@H](CC(C)C)N(C)C(=O)C[C@@H](C)N(C)C(=O)[C@H](C(C)C)N(C)C(=O)C2(CCCC2)NC(=O)[C@@H]2CCCN2C(=O)[C@H](CCc2ccc(C(F)(F)F)c(Cl)c2)NC(=O)CN(C)C(=O)[C@H](Cc2ccccc2C#N)N(C)C(=O)CN(C)C(=O)CN(C)C1=O [Compound 357] (cyclo([Ac5c][NMeV][NMedβ3hAla][NMeL]I[Sar][Sar][NMePhe(2-CN)][Sar][hPhe(3-Cl-4-CF3)]P)) | > 500
14 | CC[C@H](C)[C@@H]1NC(=O)[C@H](CC(C)C)N(C)C(=O)C[C@@H](C(=O)N2CCOCC2)N(C)C(=O)[C@H](C2CCCC2)N(C)C(=O)C2(CCCC2)NC(=O)[C@@H]2CCCN2C(=O)[C@H](CCc2cc(F)c(C(F)(F)F)c(F)c2)NC(=O)CN(C)C(=O)[C@H](Cc2ccc(C)cc2)N(CC)C(=O)[C@@H]2CCN2C(=O)[C@H](C)N(C)C1=O [Compound 1368] ([NMeL]I[NMeA][Aze][NEtPhe(4-Me)][Sar][hPhe(3,5-F2-4-CF3)]P[Ac5c][NMeGly(cPent)][NMeD]-Morpholide; lactam N-11) | ≤ 20
